Seven compounds from PubChem BioAssay (NCI) can be followed below.

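How tested: cells in 96-well plates exposed to compound for 48 hours at five concentrations. GI50 = concentration required for 50% inhibition of growth. TGI marks complete inhibition of growth.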 Some results are limits rather than exact numbers.

Holding throughout (test): inhibition of tumour cell growth, NCI panel, 48 h
In experiment [1] the test system is PC-3 prostate.
Experiment [2] relates to RPMI-8226 leukemia.
In experiment [3] the test system is DU-145 prostate.
In experiment [4] the test system is MCF7 breast.
The subject of experiment [5] is HOP-92 NSCLC.
The subject of experiment [6] is EKVX NSCLC.
The test system of experiment [7] is HCT-116 colon.
Experiment [8] relates to OVCAR-4 ovarian.
Experiment [9] relates to CCRF-CEM leukemia.
Experiment [10] concerns NCI-H226 lung.

Regarding `NCCCCC(NC(=O)C(N)CCCN=C(N)N)C(=O)NC(CCCCN)C(=O)NC(CCCN=C(N)N)C(=O)NC(CCCN=C(N)N)C(=O)NC(CCC(N)=O)C(=O)NC(CCCN=C(N)N)C(=O)NC(CCCN=C(N)N)C(=O)NC(CCCN=C(N)N)C(=O)NCC(=O)NCC(=O)O` (stereo not given), the GI50 in experiment [1], in experiment [2], in experiment [3], in experiment [4], in experiment [5] and in experiment [6] was above 50 µM in each case. Further, the GI50 in experiment [7] is above 50 µM; in [8], above 50 µM; in [9], 1.53 µM; in experiment [10], above 50 µM. For the same compound, the TGI in experiment [1], in experiment [2], in [3], in experiment [4], in experiment [5] and in experiment [6] was above 50 µM each time. The TGI was above 50 µM in experiment [7], above 50 µM in experiment [8], 8.52 µM in experiment [9] and above 50 µM in [10].

On to `O=C1c2c(c(=O)[nH]c3ccccc23)[C@H](c2ccccc2)[C@@H]2CCCN12`, for which the GI50 in experiment [1] was 6.2 µM; in experiment [2], 4.83 µM; in experiment [3] it was 3.38 µM; in experiment [4] it was 2.57 µM; in experiment [5], 2.94 µM; in [6], 13.5 µM. The GI50 in experiment [7] is 2.54 µM; in experiment [8], 2.63 µM; in [9], 4.61 µM; in [10], 2.05 µM. The TGI is above 100 µM in experiment [1]; 48.4 µM in experiment [2]; 27.5 µM in experiment [3]; 9.38 µM in experiment [4]; 15.7 µM in experiment [5]; 55.8 µM in experiment [6]. In addition, the TGI in experiment [7] is above 100 µM; in [8], 11.6 µM; in experiment [9] it was above 100 µM; in [10], 13.8 µM.

`CCCc1nn(C)c2c(=O)[nH]c(-c3cc(S(=O)(=O)N4CCN(C)CC4)ccc3OCC)nc12`: the GI50 is above 100 µM in experiment [1]; above 100 µM in [2]; above 100 µM in experiment [3]; above 100 µM in experiment [4]; 23.5 µM in [5]; above 100 µM in [6]. Moreover, the GI50 in experiment [7], in experiment [8], in experiment [9] and in experiment [10] was above 100 µM throughout. The TGI in [1] is above 100 µM; in [2] it was above 100 µM; in experiment [3], above 100 µM; in [4], above 100 µM; in experiment [5] it was 97.5 µM; in [6] it was above 100 µM. In addition, the TGI in experiment [7], in experiment [8], in experiment [9] and in [10] was above 100 µM throughout.

Turning to `Cc1cc2c(F)c(Oc3ncnc(Nc4ccc(N5C[C@@H](C)N[C@@H](C)C5)cc4)c3C#N)cc(F)c2[nH]1`, the GI50 in experiment [1] was 3.05 µM; in experiment [2], 1.72 µM; in experiment [3], 3.31 µM; in experiment [4], 1.7 µM; in experiment [5], 2.07 µM; in experiment [6], 3.39 µM. The GI50 in experiment [7] is 1.69 µM; in [8] it was 1.22 µM; in experiment [9], 1.64 µM; in experiment [10] it was 1.39 µM. In addition, the TGI in [1] stood at 11.4 µM; in [2], 4.33 µM; in experiment [3] it was 11.1 µM; in experiment [4], 4.29 µM; in [5], 8.85 µM; in [6], 14.7 µM. For the same compound, the TGI amounted to 3.2 µM in [7], 6.04 µM in experiment [8], 9.16 µM in [9] and 11.6 µM in experiment [10].

With `CN1C(=O)CCC(N2C(=O)c3cccc(NCCOCCOCCNC(=O)c4cc5c(o4)C(=O)c4ccccc4C5=O)c3C2=O)C1=O` (stereo not given), the GI50 in experiment [1] was 2.07 µM; in experiment [2], 2.32 µM; in experiment [3] it was 1.5 µM; in experiment [4] it was 1.46 µM; in experiment [5] it was 3.71 µM; in experiment [6], 2.59 µM. For the same compound, the GI50 in experiment [7] is 2.17 µM; in [8] it was 1.43 µM; in experiment [9], 3.75 µM; in [10], 1.67 µM. Further, the TGI in experiment [1] stood at 18 µM; in experiment [2] it was 7.06 µM; in [3], 2.89 µM; in [4], 3.54 µM; in experiment [5], 13.6 µM; in experiment [6] it was 7.28 µM. Besides, the TGI in [7] stood at 6.21 µM; in experiment [8], 2.8 µM; in experiment [9] it was 24.4 µM; in [10], 3.78 µM.

As to `O=C1C2CCN(CC2)C1CN1CCOCC1` (stereo not given), the TGI was found to be 34.7 µM in experiment [1]; 13.7 µM in [2]; 20.1 µM in experiment [3]; 10.8 µM in experiment [4]; 3.47 µM in [5]; 33.8 µM in experiment [6]. Also, the TGI in [7] was 3.73 µM; in experiment [8], 10.7 µM; in [9], above 23.8 µM; in experiment [10], 26.5 µM.

As to `CN(C)c1ccc(/C=N/NC(N)=S)nc1`, the GI50 in [1] was 3.76 µM; in experiment [2], 3.21 µM; in experiment [3] it was 2.45 µM; in [4], 1.64 µM; in [5], above 100 µM; in experiment [6], 3.09 µM. The GI50 was 3.3 µM in experiment [7], 4.3 µM in experiment [8], 2.82 µM in experiment [9] and 3.54 µM in experiment [10]. Also, the TGI in experiment [1] is above 100 µM; in experiment [2] it was above 100 µM; in [3], 16.3 µM; in [4], above 100 µM; in experiment [5], above 100 µM; in experiment [6], above 100 µM. Moreover, the TGI in experiment [7] was above 100 µM; in [8], above 100 µM; in experiment [9], 21.8 µM; in experiment [10], 52.7 µM.
